# Results reported in patent publication US20110189318A1, “METHODS FOR ENHANCING THE EXPRESSION OF INTRACELLULAR REDOX-ASSOCIATED FACTORS” (priority 2010, published 2011).
# Columns and labels:
# [1] = system: thioredoxin superfamily; experiment: Screen for flavonoid compounds enhancing expression of thioredoxin superfamily in keratinocytes; assay type: cell-based; details: normal human epidermal keratinocytes, 10 μM, 24 hours; FIG. 3
# Method: (§1) Normal human epidermal keratinocytes (KK-4009, KURABO) were cultured in Defined Keratinocyte-SFM medium (10744-019, GIBCO) with 5% CO2 under high humidity at 37° C. For the cells with 100% of final density, the medium was replaced with EpiLife™ Calcium-Free Phenol Red Free medium (M-EPICF/PRF-500, KURABO) whose calcium concentration had been adjusted to 1.5 mM. Twenty-four hours later, each of the following agents was added so as to have a final concentration of 10 μM.
# Twenty-four hours after adding the above agents, the mRNA expression levels of the redox-associated factors were quantified by the same method as Example 1.
# [2] = system: thioredoxin reductase; experiment: Thioredoxin reductase activity in lysates of treated keratinocytes; assay type: cell-based; details: normal human epidermal keratinocytes, 10 μM, 24 hours, relative to control; FIG. 5
# Method: Normal human epidermal keratinocytes (KK-4009, KURABO) were cultured in Defined Keratinocyte-SFM medium (10744-019, GIBCO) with 5% CO2 under high humidity at 37° C. For the cells with 100% of final density, the medium was replaced with EpiLife™ Calcium-Free Phenol Red Free medium (M-EPICF/PRF-500, KURABO) whose calcium concentration had been adjusted to 1.5 mM. Twenty-four hours later, kaempferol (K0018, Tokyo Chemical Industry Co., Ltd) or quercetin (173-00403, Wako Pure Chemical Industries, Ltd.) was added so as to have a final concentration of 10 μM. Twenty-four hours after adding the agents, the cells were dissolved in lysis buffer, and the insoluble fraction was removed by centrifugation at 14,000 rpm, 4° C. for 15 minutes. The amount of total protein in the soluble fraction was quantified, and then thioredoxin reductase activity was measured by the method of Arne Holmgren et al. (METHODS IN ENZYMOLOGY, 1995, 252, 199-208).
# [3] = system: thioredoxin reductase and glutathione reductase; experiment: mRNA expression of redox-associated factors in skin-equivalent models (q-PCR); assay type: cell-based, human; details: epidermal layer, 2 μM or 10 μM, 24 hours, FIG. 2
# Method: Skin-equivalent models were made from normal human keratinocytes (Invitrogen), normal human fibroblasts (ATCC) and collagen I (Sigma), and cultured in Dulbecco's Modified Eagle's Medium (D-MEM) (Invitrogen) with 5% CO2 under high humidity at 37° C. Two μM or 10 μM kaempferol was added into the culture medium, and the models were cultured for twenty-four hours. Then RNA was isolated from epidermal layer of the skin-equivalent models by using a QIAGEN mRNA isolation kit. Subsequently, mRNAs of thioredoxin reductase and glutathione reductase, and 36B4 as an internal standard, were quantified by q-PCR (quantitative PCR by Bio-Rad MyiQ™ single color real time PCR detection system) using the Real-time PCR kit (Bio-Rad). The primers were purchased from QIAGEN (TXNRD2: #QT00070371; GSR; #QT00038325). The amounts of thioredoxin reductase and glutathione reductase were divided by the mRNA amount of 36B4 to obtain the mRNA expression level.
# [4] = system: IL1β; experiment: Suppression of expression of inflammatory cytokine IL1β mRNA in keratinocytes; assay type: cell-based; details: normal human epidermal keratinocytes, kaempferol 10 μM, extracts 0.1%, 24 hours; FIG. 6
# Method: Normal human epidermal keratinocytes (KK-4009, KURABO) were cultured in Defined Keratinocyte-SFM medium (10744-019, GIBCO) with 5% CO2 under high humidity at 37° C. For the cells with 100% of final density, the medium was replaced with EpiLifeTM Calcium-Free Phenol Red Free medium ([…]) in which calcium concentration had been adjusted to 1.5 mM. Twenty-four hours later, kaempferol was added to have 10 μM of final concentration and each of the following plant extracts was added to have a final concentration of 0.1%. kaempferol ([…], Tokyo Chemical Industry Co., Ltd); K. galanga extract: which is obtained by the extraction of Kaempferia galanga rhizomes with 50% 1,3-butylene glycol; Ginkgo leaf extract: which is obtained by resolving 50% ethanol extract from Ginkgo biloba L. leaves in 1,3-butylene glycol. Twenty-four hours after adding the above agents, RNA was isolated by the same method as Example 1, and the mRNA expression level of the inflammation-associated factor (IL1β) was quantified. The used primers are shown below. The mRNA amount of IL1β was divided by the mRNA amount of the ribosomal protein to obtain the mRNA expression level.
# [5] = system: redox-associated factors (thioredoxin reductase, thioredoxin, glutathione reductase, glutaredoxin); experiment: mRNA expression of redox-associated factors in normal human epidermal keratinocytes (RT-PCR); assay type: cell-based; details: 10 μM, 24 hours, compared with vitamin E and lipoic acid, FIG. 1
# Method: as §1, with “kaempferol (K0018, Tokyo Chemical Industry Co., Ltd), vitamin E (95240, FULKA), or lipoic acid ((+/−)-α-lipoic acid (T1395, SIGMA)” for “each of the following agents”
# Twenty-four hours after adding the above agents, RNA was isolated by using QIAZOL Lysis Reagent (79306, QIAGEN) and purified by using RNeasy Kit (74106, QIAGEN). Subsequently, mRNAs of thioredoxin reductase, thioredoxin, glutathione reductase, glutaredoxin, and the ribosomal protein as an internal standard were quantified by the LightCycler™ software (Roche) using QuantiTect™ SYBR Green RT-PCR Kit (204243, QIAGEN). The Sequences of the used primers are shown below.
# The mRNA amounts of thioredoxin reductase, thioredoxin, glutathione reductase and glutaredoxin were divided by the mRNA amount of the ribosomal protein to obtain the mRNA expression levels.
Structure (SMILES),expression of the thioredoxin superfamily (mRNA expression level) [1],thioredoxin reductase activity [2],expression of the redox-associated factors (mRNA expression level) [3],suppression of the inflammatory cytokine IL1β (mRNA expression level) [4],expression of the redox-associated factors (mRNA expression level) [5]
"O=c1c(O)c(-c2cc(O)c(O)c(O)c2)oc2cc(O)cc(O)c12 [Myricetin, reference compound]",does not have such a function,–,–,–,–
"O=c1c(O)c(-c2ccc(O)cc2)oc2cc(O)cc(O)c12 [kaempferol, Kaempferol]",significantly enhance,enhance,significantly enhanced,suppression,significantly enhanced
"O=c1c(O)c(-c2ccc(O)c(O)c2)oc2cc(O)cc(O)c12 [quercetin, Quercetin]",significantly enhance,enhance,–,–,–
